The values that follow come from patent US20100197635A1, “TREATMENT OF TARDIVE DYSKINESIA WITH PYRIDOXAL 5'-PHOSPHATE” (Medicure International Inc., priority 2007, published 2010).

Where two headings read alike, the source gives them in different places.

One series has as its system P2 purinoceptors. The settings on record: cited from earlier work.
The test system of series [1] is Tardive Dyskinesia. Nature of the series: Double blind, placebo controlled crossover study of P5P in tardive dyskinesia (Extrapyramidal Symptom Rating Scale). The series is classed as in vivo, patients. The method, then: A double blind, placebo controlled crossover study is conducted among patients with TD induced by the use of a neuroleptic medication. Patients are divided into 5 groups: control, Vitamin B6 treatment (400 mg), low dose of P5P (100 mg), medium dose of P5P (250 mg), and high dose of P5P (750 mg). All dosages are administered orally. Treatments are given daily.

Series [2] is described as follows: Phase I single ascending dose study, pharmacokinetics of P5P enteric-coated tablet. The series is classed as in vivo, healthy subjects. Conditions: both sexes, human, fasting; for Cmax / Tmax / half-life: plasma, baseline-corrected; for AUC(0-t): baseline-corrected plasma P5P. The method, then: (§1) A Phase I, single center, single-dose, open-label, sequential ascending dose study to evaluate the safety and tolerance of pyridoxal-5′-phosphate, in an enteric-coated tablet, following a single dose of 250 mg, 750 mg, 1000 mg, and 4000 mg in healthy subjects under fasting conditions was conducted.
(§2) A total of 32 healthy, adult subjects signed the study-specific Informed Consent Form and were confined in the clinical study unit; of these subjects, 24 (6 subjects in each dose level; 3 males and 3 females) were dosed and were enrolled in the study; all of these enrolled subjects completed the study. Subjects were confined to the SFBC Anapharm Clinical Research Facility from at least 12 hours prior to drug administration until after the 24.0-hour post-dose blood draw.
Subjects were administered a single oral dose of study medication, as a 1×250 mg (Cohort 1), 3×250 mg (Cohort 2; total dose of 750 mg), 4×250 mg (Cohort 3; total dose of 1000 mg), or 16×250 mg (Cohort 4; total dose of 4000 mg) enteric-coated tablets.
After a supervised overnight fast of at least 10 hours, subjects were administered the medication as a single oral dose of 1, 3, 4, or 16 enteric-coated tablets containing 250 mg of P5P (total dose of 250mg, 750 mg, 1000 mg, or 4000 mg), with 300 mL of water. Subjects were dosed as specified in the protocol, and subsequently fasted for at least 4 hours.
The pharmacokinetic parameters to determine bioavailability for this study were: area under the concentration-time curve from time zero to time of last non-zero concentration (AUC0-t), maximum observed concentration (Cmax), time of observed Cmax (Tmax) and elimination half-life (equivalent to t1/2).

The nature of series [3]: Phase I single ascending dose study, safety and tolerance of P5P enteric-coated tablet. The series is classed as in vivo, healthy subjects. The procedure:
as §1, §2
Subjects enrolled in this study were members of the community at large. […] All participating subjects were judged eligible for the study when assessed against the inclusion and exclusion criteria. […]

The test system of series [4] is Tardive Dyskinesia. Conditions: 100-400 mg vitamin B6 per day, TD induced by schizophrenia medication; cited from earlier work.
The conditions of series [5]: unlikely to pose risks of adverse health effects in healthy people; cited from earlier work.

The Cmax is the maximum level reached in the sampled fluid or tissue. One may read the Tmax as the time at which the peak concentration occurs. What is called half-life is how long it takes for the measured level to halve. Read a low half-life as rapid decline. The AUC(0-t) is the area under the concentration-time curve up to a stated or last time point. Read a high AUC(0-t) as high exposure. As for `Cc1ncc(COP(=O)(O)O)c(C=O)c1O` [P5P, 3-hydroxy-2-methyl-5-[(phosphonooxy)methyl]-4-pyridine-carboxaldehyde], in the series with P2 purinoceptors, the “ATP induced calcium ion influx into cells” value is listed as “inhibits”. The “Extrapyramidal Symptom Rating Scale scores, medium or high dose compared to low dose group” value in the series on Tardive Dyskinesia [1] (P5P 250 mg or 750 mg vs 100 mg, orally daily) was “significantly improved scores”. Besides, the “Extrapyramidal Symptom Rating Scale scores, medium dose compared to high dose” value in the series with Tardive Dyskinesia [1] (P5P 250 mg vs 750 mg, orally daily) is recorded as “do not exhibit significantly different scores”. In the series on Tardive Dyskinesia [1] (P5P 100, 250 or 750 mg orally daily, compared to control or vitamin B6 (400 mg) groups), the “scores on the subscales of the Extrapyramidal Symptom Rating Scale (parkinsonism and dyskinetic movement scales)” value is recorded as “improved scores”. The highest concentration (Cmax) in series [2] (single oral dose 250 mg) is 300 ± 200 ng/mL; in series [2] (single oral dose 750 mg) it was 3900 ± 5400 ng/mL; in series [2] (single oral dose 1000 mg), 1500 ± 2300 ng/mL; in series [2] (single oral dose 4000 mg), 1700 ± 2700 ng/mL. The time of peak concentration (Tmax) in series [2] (single oral dose 250 mg) worked out at 3.2 ± 1.3 h; in series [2] (single oral dose 750 mg) it was 2.8 ± 0.9 h; in series [2] (single oral dose 1000 mg), 2.9 ± 1.4 h; in series [2] (single oral dose 4000 mg), 4.7 ± 3.5 h. Besides, the half-life is 53.8 ± 41.9 h in series [2] (single oral dose 250 mg), 27.9 ± 19.5 h in series [2] (single oral dose 750 mg), 36.2 ± 30.6 h in series [2] (single oral dose 1000 mg) and 16.5 ± 16.5 h in series [2] (single oral dose 4000 mg). The AUC(0-t) in series [2] (single oral dose 250 mg) came out at 2600 ± 1300 ng·h/mL; in series [2] (single oral dose 750 mg) it was 12800 ± 15400 ng·h/mL; in series [2] (single oral dose 1000 mg) it was 5900 ± 7700 ng·h/mL; in series [2] (single oral dose 4000 mg), 6900 ± 7400 ng·h/mL. Moreover, the tolerability result in series [3] (dosages up to 4000 mg) is “well tolerated”. In series [3] (single oral doses 250, 750, 1000, 4000 mg), the “side effects or evidence of toxicity” value is listed as “none of the patients presented any significant side effects or evidence of toxicity”.

As to `Cc1ncc(CO)c(CO)c1O` [vitamin B6, pyridoxine], the “scores on the subscales of the Extrapyramidal Symptom Rating Scale (parkinsonism and dyskinetic movement scales)” value with Tardive Dyskinesia [4] is “improved scores”. The “Tolerable Upper Intake Level” value in series [5] is listed as 100 mg.
